According to patent US9096538B2, “Pharmaceutical comprising PPAR agonist” (Senju Pharmaceutical Co., Ltd., priority 2005, dated 2015):

Legend:
[1] = test system: normal human corneal epithelial cell; assay: Test Example 6: increase in cell number, normal human corneal epithelial cell, 48 hours (Cell Counting Kit-8); format: cell-based; details: 10^−8 M, no addition group = 100%, average ± standard deviation, N = 4 to 5
Protocol: (§1) A normal human corneal epithelial cell (KURABO) was used.
As the test substance, the following compounds were used. • PPARδ Agonist: GW-501516 (Alexis), GW-0742 (Sigma-Aldrich)
Only basal medium (no addition group) • [2] Basal medium+GW-501516 (final concentration: 0.01 μM) • [3] Basal medium+GW-0742 (final concentration: 0.01 μM)

corneal epithelial wound = assay: Test Example 9: healing of corneal epithelial wound after corneal epithelium scraping, eyedrop; format: in vivo, rabbit; details: 0.05% eyedrop; for ratio (%) of remaining corneal epithelial defect: initial value = 100%, average ± standard deviation, N = 4
Text: A male rabbit (Japanese white, […] LABES Co., Ltd.) was used. The experimental animal was used according to the International Guiding Principles for Biomedical Research Involving Animals.
As the test substance, a PPARδ agonist GW-501516 (Alexis Biochemicals) was used. A solution in which GW-501516 was suspended in the following vehicle to 0.05% was used as an eyedrop solution.
As a control for the test substance administration group, the aforementioned vehicle administration group containing no drug was set.
After the animal was subjected to systemic anesthesia by intramuscular injection (0.9 mL/kg) with a selactar (2% xylazine: Bayer): ketalar (5% ketamine: Sankyo)=0.5:1 mixed solution, an oxybuprocaine hydrochloride eyedrop solution (Benoxil eyedrop solution 0.4%; Santen Pharmaceutical Co., Ltd.) was administered, and eyeballs were exposed. A mark having a diameter of 6 mm was stamped on a corneal epithelium at a corneal central part using a trephine having a diameter of 6 mm, and a whole corneal epithelial layer within a stamped circumference was scraped using a handy rooter under a stereomicroscope. After scraping, a corneal surface was washed using physiological saline (Otsuka Pharmaceutical Factory Inc.), and eyeballs were returned into the orbit to complete the corneal epithelial scraping treatment.
A test substance eyedrop solution or an eyedrop solution vehicle was administered to treated eyes at 50 μL per once using a micropipette two times a day on the corneal epithelium scraping day and, on the following day and thereafter, four times a day until completion of the test.
At the time point at which corneal epithelium scraping of both eyes of all individuals was completed was defined as the test initiation time (0 hour) and, by quantitating the corneal epithelial defect area at 24, 38 and 48 hours thereafter, restoration of a corneal epithelium was assessed. That is, at each time point, 10 μL of a 0.1% fluorescein sodium (Wako Pure Chemical Industries, Ltd.) solution was administered to treated eyes, a photograph of an anterior ocular segment of the animal was immediately taken using a slit lamp equipped with a cobalt filter and thereby, a stained corneal epithelial defect region was recorded. A developed photograph was stored as a digital image in a computer, and an area of the stained corneal epithelial defect part was measured using image analysis software (Image-Pro Plus).
Regarding the corneal epithelial defect area measured at each time point, a value for each individual was calculated, assuming that its initial value was 100%, and this was adopted as a ratio of the remaining corneal epithelial defect.

[2] = test system: normal human corneal epithelial cell; assay: Test Example 5: increase in cell number, normal human corneal epithelial cell, 24 hours (Cell Counting Kit-8); format: cell-based; details: no addition group = 100%, average ± standard deviation, N = 3 to 4
Protocol: as §1
As the test substance, the following compounds were used. PPARδ agonist: L-165041 (Sigma-Aldrich), GW-501516 (Alexis)
In addition, as a positive control for confirming the cell proliferation promoting effect, a medium in which a mouse-derived epithelial growth factor (mEGF) contained in an HCGS proliferation additive set (KURABO) was added to a basal medium (basal medium+1 ng/mL mEGF) was used.
This cell suspension was seeded on a fibronectin-coated multiwell plate (24 well, BECTON DICKINSON) so that the cell number became 2×10^4 cells/500 μL/well (since the bottom area is 2 cm^2, the number is 1×10^4 cells/cm^2).
Further, 24 hours thereafter, the culture medium was exchanged with each 400 μL of the following culture media. • [1] Only basal medium (no addition group) • [2] Basal medium+mEGF (final concentration: 1 ng/mL; positive control group) • [3] Basal medium+L-165041 (final concentration: 0.01 μM and 0.1 μM) • [4] Basal medium+GW-501516 (final concentration: 0.001 μM and 0.01 μM)

[3] = test system: monkey meibomian gland epithelial cell; assay: Test Example 8: increase in number of monkey meibomian gland epithelial cells (Cell Counting Kit-8); format: cell-based; details: 3 x 48 hours; for Cell proliferation (%): no addition group = 100%, average ± standard deviation, N = 5
Text: For studying the effect of promoting cell proliferation by each test substance, a culture medium prepared by removing the supplement attached to DK-SFM, from DK-SFM, was used as a basal medium, while as a positive control for confirming the cell proliferation promoting effect, a culture medium with the supplement added thereto (basal medium+supplement) was used according to instructions of an DK-SFM preparation protocol. […] In the test, a monkey meibomian gland epithelial cell which had been cultured to subconfluent, suspended in a cell banker (Nippon Zenyaku Kogyo Co., Ltd.), and cryopreserved in liquid nitrogen was used. The cell which had been cryopreserved was thawed, and transferred to a 50 mL centrifuge tube and a 10-fold amount of DK-SFM was added thereto. […] Each 64 μL of this cell suspension was dispensed into each well so that the cell number per bottom area (0.32 cm^2) of the collagen-treated 96-well culture dish for tissue culture became 4×10^4 cells/cm^2. […] After 48 hours from initial culture medium exchange, the culture medium was exchanged with a freshly prepared culture medium of each of [1] to [4]. Further, after 48 hours therefrom, the culture medium was exchanged again with a freshly prepared culture medium of each of [1] to [4].

[4] = test system: rabbit corneal epithelial cell; assay: Test Example 2: increase in cell number, cultured rabbit corneal epithelial cell, 120 hours (Cell Counting Kit-8); format: cell-based; details: no addition group = 100%, average ± standard deviation, N = 5
Protocol: A male rabbit (Japanese white, weight: about 1.5 kg, […] LABES Co., Ltd.) was used. The experimental animal was used according to the International Guiding Principles for Biomedical Research Involving Animals.
A rabbit corneal epithelial cell was prepared using the same process as that of (Test example 1).
As the test substance, the following compounds were used. • PPARδ agonist: L-165041 (Sigma-Aldrich) and GW-501516 (Alexis)
For studying the effect of promoting cell proliferation by each test substance, a culture medium prepared by removing a mouse-derived epithelial growth factor (mEGF) attached to RCGM2, from RCGM2, was used as a basal medium, while as a positive control for confirming the effect of promoting cell proliferation, a medium with an mEGF added thereto (basal medium+10 ng/mL mEGF) was used according to instructions of an RCGM2 preparation protocol.
Collagen treatment of the culture dish was performed using the same process as that of (Test Example1).
In the test, a rabbit corneal epithelial cell which had been cultured to subconfluent in a culture dish having a diameter of 10 cm was used. After the culture medium was removed, the bottom of the culture dish was washed two times using D-PBS, to this was added 1 mL of trypsin-EDTA, this was incubated at 37° C. for 5 minutes and thereby, the cell was peeled from the bottom of the culture dish. After incubation, 9 mL of MEM containing 10% FBS was added to the culture dish to stop the enzymatic reaction, and this was subjected to centrifugation at room temperature and 1,500 rpm for 5 minutes to obtain a corneal epithelial cell layer. To the resulting cell was added an appropriate amount of RCGM2 to a cell concentration of 1×10^5 cells/mL to suspend the cell. Each 64 μL of this cell suspension was dispensed in each well at the cell number per bottom area (0.32 cm^2) of the collagen-treated 96-well culture dish for tissue culture of […]. […] After 24 hours from cell seeding, the culture medium was discarded, and each 100 μL of the following culture media were freshly dispensed into each well of the culture dish. • [1] Only basal medium (no addition group) • [2] Basal medium+mEGF (final concentration: 10 ng/mL; positive control group) • [3] Basal medium+L-165041 (final concentration: 0.1 μM and 1 μM) • [4] Basal medium+GW-501516 (final concentration: 0.01 μM and 0.1 μM)
The culture supernatant of each well was removed every 48 hours from exchange of the culture medium containing a test substance, and each 100 μL of the freshly prepared culture medium was dispensed into each well.

## Cc1cc(SCc2sc(-c3ccc(C(F)(F)F)cc3)nc2C)ccc1OCC(=O)O [GW-501516, (2-methyl-4-(((4-methyl-2-(4-(trifluoromethyl)phenyl)-5-thiazolyl)methyl)thio)phenoxy)acetic acid]
[1]
  Cell proliferation (%): 129.2 ± 7.5%
Corneal epithelial wound; 0 hour (initial value)
  ratio (%) of remaining corneal epithelial defect: 100.0 ± 6.5%
Corneal epithelial wound; 24 hours and 38 hours after corneal epithelium scraping
  ratio of the corneal epithelial defect compared to vehicle (in words): significantly decreased
Corneal epithelial wound; 24 hours later, 50 μL
  ratio (%) of remaining corneal epithelial defect: 25.3 ± 3.1 %
Corneal epithelial wound; 38 hours later, 50 μL
  ratio (%) of remaining corneal epithelial defect: 0.2 ± 0.2 %
Corneal epithelial wound; after 48 hours, all individuals (vehicle group too)
  corneal epithelial defect (in words): disappeared in all individuals
[2]; 10^−8 M
  Cell proliferation (%): 125.7 ± 2.3%
[2]; 10^−9 M
  Cell proliferation (%): 133.1 ± 3.7%
[3]; 10^−7 M
  cell proliferation compared to the no addition group (in words): significantly higher than in the no addition group
  Cell proliferation (%): 156.1 ± 18.9%
[3]; 10^−8 M
  Cell proliferation (%): 133.3 ± 7.4%
[4]; 10^−7 M
  Cell proliferation (%): 213.2 ± 34.0%
[4]; 10^−8 M
  Cell proliferation (%): 223.9 ± 24.1%
